Source: patent US9340590B2 (priority 2011, dated 2016)
Like-named read-outs stand apart in the source and are kept apart here. Positions of bridges follow the written chain, without caps; N, C: chain ends. Non-standard residues stand in square brackets, D forms with d. Residues, ends and D or L forms follow the SMILES beside them. Phe(4-COOH) = N[C@@H](Cc1ccc(C(=O)O)cc1)C(=O)O; Trp(1-Me) = Cn1cc(C[C@H](N)C(=O)O)c2ccccc21

Legend:
hNav1.7 = hNav1.7 (Homo sapiens, UniProt Q15858); test: cell-based
Sequence of hNav1.7 (Q15858 whole entry, looked up): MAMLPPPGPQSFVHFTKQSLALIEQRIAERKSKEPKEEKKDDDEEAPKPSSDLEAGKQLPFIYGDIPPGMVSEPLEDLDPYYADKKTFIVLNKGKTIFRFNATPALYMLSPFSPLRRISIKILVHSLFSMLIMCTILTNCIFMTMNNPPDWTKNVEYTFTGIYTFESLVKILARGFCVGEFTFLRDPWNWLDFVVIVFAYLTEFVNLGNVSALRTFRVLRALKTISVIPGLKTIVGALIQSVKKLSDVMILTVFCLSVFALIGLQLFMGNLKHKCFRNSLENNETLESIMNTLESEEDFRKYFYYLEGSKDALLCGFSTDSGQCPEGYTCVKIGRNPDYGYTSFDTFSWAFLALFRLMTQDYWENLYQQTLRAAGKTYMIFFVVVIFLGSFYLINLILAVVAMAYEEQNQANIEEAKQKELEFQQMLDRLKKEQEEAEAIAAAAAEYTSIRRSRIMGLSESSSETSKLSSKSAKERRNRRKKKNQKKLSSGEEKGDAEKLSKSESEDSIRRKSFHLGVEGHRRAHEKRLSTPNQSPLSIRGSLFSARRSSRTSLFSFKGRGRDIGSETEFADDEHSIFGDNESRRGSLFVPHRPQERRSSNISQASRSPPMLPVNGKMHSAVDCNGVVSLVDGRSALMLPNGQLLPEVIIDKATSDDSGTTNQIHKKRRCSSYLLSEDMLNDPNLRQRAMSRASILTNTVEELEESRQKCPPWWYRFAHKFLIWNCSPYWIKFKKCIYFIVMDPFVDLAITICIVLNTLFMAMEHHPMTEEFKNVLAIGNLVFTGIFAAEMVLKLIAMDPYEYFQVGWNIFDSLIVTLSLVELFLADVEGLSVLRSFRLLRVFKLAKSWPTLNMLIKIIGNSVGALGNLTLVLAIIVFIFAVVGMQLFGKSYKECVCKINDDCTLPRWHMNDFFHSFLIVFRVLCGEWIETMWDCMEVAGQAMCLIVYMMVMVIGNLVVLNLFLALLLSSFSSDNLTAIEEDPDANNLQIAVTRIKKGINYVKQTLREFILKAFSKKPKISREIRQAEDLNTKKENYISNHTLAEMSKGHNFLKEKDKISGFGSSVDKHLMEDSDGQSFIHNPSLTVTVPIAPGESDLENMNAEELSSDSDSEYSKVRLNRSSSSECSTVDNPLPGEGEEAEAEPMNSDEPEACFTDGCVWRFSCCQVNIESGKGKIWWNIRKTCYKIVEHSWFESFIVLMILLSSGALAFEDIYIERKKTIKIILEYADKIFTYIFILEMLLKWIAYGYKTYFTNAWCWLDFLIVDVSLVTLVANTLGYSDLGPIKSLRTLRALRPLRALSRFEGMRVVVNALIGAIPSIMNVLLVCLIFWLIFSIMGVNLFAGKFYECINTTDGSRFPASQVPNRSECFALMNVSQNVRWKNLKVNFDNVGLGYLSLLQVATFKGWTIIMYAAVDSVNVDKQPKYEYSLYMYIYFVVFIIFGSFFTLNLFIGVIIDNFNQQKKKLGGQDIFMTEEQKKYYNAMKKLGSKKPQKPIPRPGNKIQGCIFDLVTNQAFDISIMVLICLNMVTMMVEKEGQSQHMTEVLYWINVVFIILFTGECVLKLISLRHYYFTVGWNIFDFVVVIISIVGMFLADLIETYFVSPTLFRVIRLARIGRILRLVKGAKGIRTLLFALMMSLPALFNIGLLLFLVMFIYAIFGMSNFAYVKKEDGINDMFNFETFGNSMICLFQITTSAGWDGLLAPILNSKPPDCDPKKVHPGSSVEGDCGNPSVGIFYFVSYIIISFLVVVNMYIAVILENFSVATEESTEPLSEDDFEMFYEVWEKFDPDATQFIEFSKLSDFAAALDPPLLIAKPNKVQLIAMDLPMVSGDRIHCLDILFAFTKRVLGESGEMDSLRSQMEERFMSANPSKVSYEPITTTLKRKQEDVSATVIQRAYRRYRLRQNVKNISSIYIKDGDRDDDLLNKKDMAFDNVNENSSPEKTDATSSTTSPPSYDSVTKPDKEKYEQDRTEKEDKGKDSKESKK

hNav1.5 = hNav1.5 (Homo sapiens, UniProt Q14524); test: cell-based
Sequence of hNav1.5 (Q14524 whole entry, looked up): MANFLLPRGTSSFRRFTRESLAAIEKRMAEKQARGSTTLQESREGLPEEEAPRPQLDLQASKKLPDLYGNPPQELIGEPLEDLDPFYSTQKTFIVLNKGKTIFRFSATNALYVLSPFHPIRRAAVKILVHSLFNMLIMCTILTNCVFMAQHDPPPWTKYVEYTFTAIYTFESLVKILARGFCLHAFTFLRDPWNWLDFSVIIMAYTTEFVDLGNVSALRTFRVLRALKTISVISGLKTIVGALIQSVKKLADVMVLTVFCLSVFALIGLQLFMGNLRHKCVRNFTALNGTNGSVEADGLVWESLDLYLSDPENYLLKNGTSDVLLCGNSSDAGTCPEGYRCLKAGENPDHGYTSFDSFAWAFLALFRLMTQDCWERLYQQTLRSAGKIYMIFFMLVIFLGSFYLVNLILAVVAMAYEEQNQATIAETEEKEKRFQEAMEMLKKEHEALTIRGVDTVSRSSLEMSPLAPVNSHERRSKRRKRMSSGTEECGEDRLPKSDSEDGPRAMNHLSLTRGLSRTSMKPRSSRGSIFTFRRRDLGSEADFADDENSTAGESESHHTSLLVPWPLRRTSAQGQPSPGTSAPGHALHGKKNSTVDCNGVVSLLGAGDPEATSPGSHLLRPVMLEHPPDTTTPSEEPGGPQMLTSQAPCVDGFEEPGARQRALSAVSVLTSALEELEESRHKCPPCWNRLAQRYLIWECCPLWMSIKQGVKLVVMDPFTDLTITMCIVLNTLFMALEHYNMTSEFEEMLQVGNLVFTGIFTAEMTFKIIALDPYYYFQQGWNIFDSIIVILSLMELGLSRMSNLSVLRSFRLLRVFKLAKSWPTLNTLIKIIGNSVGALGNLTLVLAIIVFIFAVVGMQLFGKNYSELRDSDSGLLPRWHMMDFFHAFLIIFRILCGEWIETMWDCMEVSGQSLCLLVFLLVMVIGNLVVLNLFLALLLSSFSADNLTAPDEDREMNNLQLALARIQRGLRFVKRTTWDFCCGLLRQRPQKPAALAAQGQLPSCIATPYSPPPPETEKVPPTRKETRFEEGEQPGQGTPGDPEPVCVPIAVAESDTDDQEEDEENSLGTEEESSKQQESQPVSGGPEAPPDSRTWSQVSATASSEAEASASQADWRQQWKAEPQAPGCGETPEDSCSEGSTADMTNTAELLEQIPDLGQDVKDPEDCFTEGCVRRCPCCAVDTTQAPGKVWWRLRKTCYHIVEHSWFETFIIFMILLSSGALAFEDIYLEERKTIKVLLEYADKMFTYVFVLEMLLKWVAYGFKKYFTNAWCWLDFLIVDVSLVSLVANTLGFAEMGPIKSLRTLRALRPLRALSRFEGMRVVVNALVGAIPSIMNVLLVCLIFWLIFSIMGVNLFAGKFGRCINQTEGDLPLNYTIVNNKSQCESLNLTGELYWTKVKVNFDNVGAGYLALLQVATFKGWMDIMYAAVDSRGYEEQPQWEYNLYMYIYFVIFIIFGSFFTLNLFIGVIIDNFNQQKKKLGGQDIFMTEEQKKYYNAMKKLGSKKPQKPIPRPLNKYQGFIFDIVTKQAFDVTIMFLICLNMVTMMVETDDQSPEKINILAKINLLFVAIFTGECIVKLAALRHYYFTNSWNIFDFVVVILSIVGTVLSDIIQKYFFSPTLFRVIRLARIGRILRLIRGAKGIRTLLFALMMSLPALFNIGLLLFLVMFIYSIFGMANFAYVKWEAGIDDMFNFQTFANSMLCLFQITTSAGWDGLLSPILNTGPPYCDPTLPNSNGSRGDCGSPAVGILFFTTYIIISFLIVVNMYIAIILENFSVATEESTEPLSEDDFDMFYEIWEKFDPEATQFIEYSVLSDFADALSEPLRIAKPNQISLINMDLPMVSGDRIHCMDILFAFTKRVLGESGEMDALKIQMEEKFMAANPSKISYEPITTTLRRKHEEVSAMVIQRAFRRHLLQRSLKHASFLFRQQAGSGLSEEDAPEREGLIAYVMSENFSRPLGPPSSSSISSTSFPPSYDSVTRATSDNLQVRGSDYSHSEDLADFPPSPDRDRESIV

`CC[C@H](C)[C@@H]1NC(=O)[C@@H]2CSSC[C@@H]3NC(=O)[C@H](C(C)C)NC(=O)[C@H](CC(C)C)NC(=O)[C@H](CC(N)=O)NC(=O)[C@@H]4CCCN4C(=O)[C@H](CCCNC(=N)N)NC(=O)[C@H](CSSC[C@H](NC(=O)[C@@H](N)CC(=O)O)C(=O)N[C@@H](CC(C)C)C(=O)NCC(=O)N[C@@H](C)C(=O)N[C@@H](CC(C)C)C(=O)N[C@@H](CCCNC(=N)N)C(=O)N[C@@H](CCCCN)C(=O)N2)NC(=O)[C@H](CSSC[C@@H](C(=O)N[C@@H](CCCCN)C(=O)N[C@@H](Cc2ccc(O)cc2)C(=O)N[C@H](C(=O)N[C@@H](Cc2ccccc2)C(=O)N[C@@H](Cc2c[nH]c4ccccc24)C(=O)O)C(C)C)NC(=O)[C@H](Cc2c[nH]c4ccccc24)NC(=O)[C@H](CCCNC(=N)N)NC(=O)[C@H](Cc2c[nH]cn2)NC(=O)[C@H]([C@@H](C)O)NC(=O)[C@H](CCCNC(=N)N)NC(=O)[C@H](CO)NC3=O)NC(=O)[C@H](CCCCN)NC(=O)[C@H](CC(=O)O)NC(=O)[C@H](CC(N)=O)NC(=O)[C@H](CC(=O)O)NC(=O)[C@@H]2CCCN2C1=O` (H-DCLGALRKCIPDNDKCCRPNLVCSRTHRWCKYVFW-OH; disulfide 2-17, 9-23, 16-30) was tested. Which IC50 (hNav1.7; Nav1.7 Use IC50) did it give?
The IC50 was 50 nM.

What about the IC50 (hNav1.5) of the same molecule?
The IC50 was greater than 10000 nM.

Which IC50 (hNav1.7; Nav1.7 Use IC50) does the source give for `CC(C)C[C@@H]1NC(=O)[C@@H](NC(=O)[C@@H](N)CC(=O)O)CSSC[C@@H]2NC(=O)[C@@H]3CSSC[C@@H](C(=O)N[C@@H](CCCCN)C(=O)N[C@@H](Cc4ccc(O)cc4)C(=O)N[C@H](C(=O)N[C@@H](Cc4ccccc4)C(N)=O)C(C)C)NC(=O)[C@H](Cc4c[nH]c5ccccc45)NC(=O)[C@H](CCCCN)NC(=O)[C@H](Cc4c[nH]cn4)NC(=O)[C@H]([C@@H](C)O)NC(=O)[C@H](CCCNC(=N)N)NC(=O)[C@H](CO)NC(=O)[C@H](CSSC[C@H](NC(=O)[C@H](CCCCN)NC(=O)[C@H](CCCNC(=N)N)NC(=O)[C@H](Cc4ccccc4)NC(=O)[C@H](C)NC(=O)CNC1=O)C(=O)N[C@@H](CCC(=O)O)C(=O)N1CCC[C@H]1C(=O)N[C@@H](CC(=O)O)C(=O)N[C@@H](CC(N)=O)C(=O)N[C@@H](CC(=O)O)C(=O)N[C@@H](CCCCN)C(=O)N3)NC(=O)[C@H](C(C)C)NC(=O)[C@H](CC(C)C)NC(=O)[C@H](CC(N)=O)NC(=O)[C@@H]1CCCN1C(=O)[C@H](CCCNC(=N)N)NC2=O` [[Ala5;Phe6;Glu10]GpTx-1(1-34)] (H-DCLGAFRKCEPDNDKCCRPNLVCSRTHKWCKYVF-NH2; disulfide 2-17, 9-23, 16-30) here?
The IC50 was 79 nM.

And the IC50 (hNav1.5)?
The IC50 was greater than 10000 nM.

With `CC[C@H](C)[C@@H]1NC(=O)[C@@H]2CSSC[C@@H]3NC(=O)[C@H](C(C)C)NC(=O)[C@H](CC(C)C)NC(=O)[C@H](CC(N)=O)NC(=O)[C@@H]4CCCN4C(=O)[C@H](CCCNC(=NC)NC)NC(=O)[C@H](CSSC[C@H](NC(=O)[C@@H](N)CC(=O)O)C(=O)N[C@@H](CC(C)C)C(=O)NCC(=O)N[C@@H](Cc4ccccc4)C(=O)N[C@@H](CCSC)C(=O)N[C@@H](CCCNC(=N)N)C(=O)N[C@@H](CCCCN)C(=O)N2)NC(=O)[C@H](CSSC[C@@H](C(=O)N[C@@H](CCCCN)C(=O)N[C@@H](Cc2ccc(O)cc2)C(=O)N[C@H](C(=O)N[C@@H](Cc2ccccc2)C(N)=O)C(C)C)NC(=O)[C@H](Cc2c[nH]c4ccccc24)NC(=O)[C@H](CCCCN)NC(=O)[C@H](Cc2c[nH]cn2)NC(=O)[C@H]([C@@H](C)O)NC(=O)[C@H](CCCNC(=N)N)NC(=O)[C@H](CO)NC3=O)NC(=O)[C@H](CCCCN)NC(=O)[C@H](CC(=O)O)NC(=O)[C@H](CC(N)=O)NC(=O)[C@H](CC(=O)O)NC(=O)[C@@H]2CCCN2C1=O` [[SDMA18]GpTx-1(1-34)] as the molecule, how does the IC50 (hNav1.7; read-out: Nav1.7 Use IC50) read?
Its IC50 is 6 nM.

What about the IC50 (hNav1.5) of the same molecule?
Its IC50 is 10000 nM.

`CC[C@H](C)[C@@H]1NC(=O)[C@@H]2CSSC[C@@H]3NC(=O)[C@H](C(C)C)NC(=O)[C@H](CC(C)C)NC(=O)[C@H](CC(N)=O)NC(=O)[C@@H]4CCCN4C(=O)[C@H](CCCNC(=N)N)NC(=O)[C@H](CSSC[C@H](NC(=O)[C@@H](N)CC(=O)O)C(=O)N[C@@H](CC(C)C)C(=O)NCC(=O)N[C@@H](Cc4ccccc4)C(=O)N[C@@H](CCSC)C(=O)N[C@@H](CCCNC(=N)N)C(=O)N[C@@H](CCCCN)C(=O)N2)NC(=O)[C@H](CSSC[C@@H](C(=O)N[C@@H](CCCCN)C(=O)N[C@@H](Cc2ccc(O)cc2)C(=O)N[C@H](C(=O)N[C@@H](Cc2ccccc2)C(N)=O)C(C)C)NC(=O)[C@H](Cc2c[nH]c4ccccc24)NC(=O)[C@H](CCCCN)NC(=O)[C@H](Cc2c[nH]cn2)NC(=O)[C@H]([C@@H](C)O)NC(=O)[C@H](CCC(=O)O)NC(=O)[C@H](CO)NC3=O)NC(=O)[C@H](CCCCN)NC(=O)[C@H](CC(=O)O)NC(=O)[C@H](CC(N)=O)NC(=O)[C@H](CC(=O)O)NC(=O)[C@@H]2CCCN2C1=O` [[Glu25]GpTx-1(1-34)] (H-DCLGFMRKCIPDNDKCCRPNLVCSETHKWCKYVF-NH2; disulfide 2-17, 9-23, 16-30) was tested. Which IC50 (hNav1.7; Nav1.7 Use IC50) did it give?
Its IC50 is 28 nM.

And the IC50 (hNav1.5)?
Its IC50 is greater than 10000 nM.

Which IC50 (hNav1.7; Nav1.7 Use IC50) does the source give for `CC[C@H](C)[C@@H]1NC(=O)[C@@H]2CSSC[C@@H]3NC(=O)[C@H](C(C)C)NC(=O)[C@H](CC(C)C)NC(=O)[C@H](CC(N)=O)NC(=O)[C@@H]4CCCN4C(=O)[C@H](CCCNC(=N)N)NC(=O)[C@H](CSSC[C@H](NC(=O)[C@@H](N)CC(=O)O)C(=O)N[C@@H](CC(C)C)C(=O)NCC(=O)N[C@@H](Cc4ccccc4)C(=O)N[C@@H](CCSC)C(=O)N[C@@H](CCCNC(=N)N)C(=O)N[C@@H](CCCCN)C(=O)N2)NC(=O)[C@H](CSSC[C@@H](C(=O)N[C@@H](CCCCN)C(=O)N[C@@H](Cc2ccc(O)cc2)C(=O)N[C@H](C(=O)N[C@@H](Cc2ccccc2)C(N)=O)C(C)C)NC(=O)[C@H](Cc2c[nH]c4ccccc24)NC(=O)[C@H](CCCCN)NC(=O)[C@H](Cc2c[nH]cn2)NC(=O)[C@H]([C@@H](C)O)NC(=O)[C@H](CCCNC(N)=O)NC(=O)[C@H](CO)NC3=O)NC(=O)[C@H](CCCCN)NC(=O)[C@H](CC(=O)O)NC(=O)[C@H](CC(N)=O)NC(=O)[C@H](CC(=O)O)NC(=O)[C@@H]2CCCN2C1=O` [[Cit25]GpTx-1(1-34)] here?
The IC50 was 4 nM.

And the IC50 (hNav1.5)?
The IC50 was greater than 10000 nM.

What does the source list for `CC[C@H](C)[C@@H]1NC(=O)[C@@H]2CSSC[C@@H]3NC(=O)[C@H](C(C)C)NC(=O)[C@H](CC(C)C)NC(=O)[C@H](CC(N)=O)NC(=O)[C@@H]4CCCN4C(=O)[C@H](CCCNC(=N)N)NC(=O)[C@H](CSSC[C@H](NC(=O)[C@@H](N)CC(=O)O)C(=O)N[C@@H](CC(C)C)C(=O)NCC(=O)N[C@@H](C)C(=O)N[C@@H](CCSC)C(=O)N[C@@H](CCCNC(=N)N)C(=O)N[C@@H](CCCCN)C(=O)N2)NC(=O)[C@H](CSSC[C@@H](C(=O)N[C@@H](CCCCN)C(=O)N[C@@H](Cc2cn(C)c4ccccc24)C(=O)N[C@H](C(=O)N[C@@H](Cc2ccccc2)C(N)=O)C(C)C)NC(=O)[C@H](Cc2c[nH]c4ccccc24)NC(=O)[C@H](CCCCN)NC(=O)[C@H](Cc2c[nH]cn2)NC(=O)[C@H]([C@@H](C)O)NC(=O)[C@H](CCCNC(=N)N)NC(=O)[C@H](CO)NC3=O)NC(=O)[C@H](CCCCN)NC(=O)[C@H](CC(=O)O)NC(=O)[C@H](CC(N)=O)NC(=O)[C@H](CC(=O)O)NC(=O)[C@@H]2CCCN2C1=O` [[Ala5;1′NMeW32]GpTx-1(1-34)] (H-DCLGAMRKCIPDNDKCCRPNLVCSRTHKWCK[Trp(1-Me)]VF-NH2; disulfide 2-17, 9-23, 16-30)?
IC50 (hNav1.7; Nav1.7 Use IC50): 18 nM; IC50 (hNav1.5): > 10000 nM

How did the IC50 (hNav1.7; Nav1.7 Use IC50) turn out when `CC[C@H](C)[C@@H]1NC(=O)[C@@H]2CSSC[C@@H]3NC(=O)[C@H](C(C)C)NC(=O)[C@H](CC(C)C)NC(=O)[C@H](CC(N)=O)NC(=O)[C@@H]4CCCN4C(=O)[C@H](CCCNC(=N)N)NC(=O)[C@H](CSSC[C@H](NC(=O)[C@@H](N)CC(=O)O)C(=O)N[C@@H](CC(C)C)C(=O)NCC(=O)N[C@@H](Cc4ccccc4)C(=O)N[C@@H](CCSC)C(=O)N[C@@H](CCCNC(=N)N)C(=O)N[C@@H](CCCCN)C(=O)N2)NC(=O)[C@H](CSSC[C@@H](C(=O)N[C@@H](CCCCN)C(=O)N[C@@H](Cc2ccc(O)cc2)C(=O)N[C@@H](Cc2ccc(C(=O)O)cc2)C(=O)N[C@@H](Cc2ccccc2)C(N)=O)NC(=O)[C@H](Cc2c[nH]c4ccccc24)NC(=O)[C@H](CCCCN)NC(=O)[C@H](Cc2c[nH]cn2)NC(=O)[C@H]([C@@H](C)O)NC(=O)[C@H](CCCNC(=N)N)NC(=O)[C@H](CO)NC3=O)NC(=O)[C@H](CCCCN)NC(=O)[C@H](CC(=O)O)NC(=O)[C@H](CC(N)=O)NC(=O)[C@H](CC(=O)O)NC(=O)[C@@H]2CCCN2C1=O` [[4CO2-F33]GpTx-1(1-34)] (H-DCLGFMRKCIPDNDKCCRPNLVCSRTHKWCKY[Phe(4-COOH)]F-NH2; disulfide 2-17, 9-23, 16-30) was run?
The IC50 was 3 nM.

And the IC50 (hNav1.5)?
The IC50 was greater than 10000 nM.

For `CC[C@H](C)[C@@H]1NC(=O)[C@@H]2CSSC[C@@H]3NC(=O)[C@H](C(C)C)NC(=O)[C@H](CC(C)C)NC(=O)[C@H](CC(N)=O)NC(=O)[C@@H]4CCCN4C(=O)[C@H](CCCNC(=N)N)NC(=O)[C@H](CSSC[C@H](NC(=O)[C@@H](N)CC(=O)O)C(=O)N[C@@H](CC(C)C)C(=O)NCC(=O)N[C@@H](CCSC)C(=O)N[C@@H](CC(C)C)C(=O)N[C@@H](CCCNC(=N)N)C(=O)N[C@@H](CCCCN)C(=O)N2)NC(=O)[C@H](CSSC[C@@H](C(=O)N[C@@H](CCCCN)C(=O)N[C@@H](Cc2ccc(O)cc2)C(=O)N[C@H](C(=O)N[C@@H](Cc2ccccc2)C(N)=O)C(C)C)NC(=O)[C@H](Cc2c[nH]c4ccccc24)NC(=O)[C@H](CCCCN)NC(=O)[C@H](Cc2c[nH]cn2)NC(=O)[C@H]([C@@H](C)O)NC(=O)[C@H](CCCNC(=N)N)NC(=O)[C@H](CO)NC3=O)NC(=O)[C@H](CCCCN)NC(=O)[C@H](CC(=O)O)NC(=O)[C@H](CC(N)=O)NC(=O)[C@H](CC(=O)O)NC(=O)[C@@H]2CCCN2C1=O` [[Met5;Leu6]GpTx-1(1-34)] (H-DCLGMLRKCIPDNDKCCRPNLVCSRTHKWCKYVF-NH2; disulfide 2-17, 9-23, 16-30), which IC50 (hNav1.7; Nav1.7 Use IC50) is on record?
Its IC50 is 270 nM.

What about the IC50 (hNav1.5) of the same molecule?
Its IC50 is greater than 10000 nM.
